Here are results for 27 compounds from patent publication US7332489B2, “Methods and compositions of novel triazine compounds” (Reddy US Therapeutics, Inc., priority 2003, dated 2008).

For one series, the system named is cells. Description: Cytotoxicity/Lactate Dehydrogenase assay. Format: cell-based. The settings on record: toxic or cause cell death; concentrations (uM) given. The procedure:
An appropriate number of cells are plated in four 96-well plates, one plate for “day 0” and three plates for days 1-3. Cells are treated with at least one compound of the present invention in varying concentrations with and without the apoptosis inducer cisplatin (2 μM) (“+cis” or “-cis”). Unteated cells are also assayed with and without cisplatin. After transfection, the plates are incubated at 37° C. overnight.
An appropriate number of cells are plated in four 96-well plates, one plate for “day 0” and three plates for days 1-3. Cells are treated with at least one compound of the present invention in varying concentrations. The negative control cells have normal media conditions, a duplicate set of wells is treated with the composition in which the compound is provided, but there is no added compound and the positive control cells are treated with the apoptosis inducer cisplatin (2 μM). All of the cells are transfected with a vector having a promoter that is responsive to apoptosis conditions. When apoptosis occurs, the promoter is turned on and the lactic dehydrogenase gene is activated and the enzyme protein is made and active. Activity is easily detected with a color change. After transfection, the plates are incubated at 37° C. overnight.
About 8 mls of warmed alpha MEM LDH lysis buffer (2% Triton X100) and about 8 mls of culture media (1/2 dilution) are combined. Two 96-well v-bottom plates are prepared, one labeled “lysis” and one labeled “supernatant.” To lyse the cells, about 200 μl Alpha MEM lysis buffer (diluted 1/2) is added to one test plate from which the supernatant has been removed and added to the plate labeled supernatant. After mixing, about 200 μl of lysed cells are transferred to the lysis plate. Both the lysis and supernatant plates are centrifuged at about 1600 rpm for about 10 min. After centrifugation, about 100 μl of both the supernatant or lysate is transferred to corresponding 96-well flat-bottomed plates.
The assay for cytotoxicity uses the Cytotoxicity Detection Kit (LDH) from Roche Diagnostics Corp. (Indianapolis, Ind.). Using the directions provided, the dye solution is mixed and added each well of the lysate and supernatant plate and incubated for up to 20-25 min at 15-25° C. in the dark.

The next series relates to TNF-α induced IL-6. Description: TNF-α-induced IL-6 production determined by IL-6 ELISA. Format: cell-based. The settings on record: for activity at 10 µM: Homo sapiens, 24 h. In outline:
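Human aortic endothelial cells grown to ≥90% confluence, then treated with compounds and stimuli in serum-free medium with 0.2% albumin. Secreted IL-6 in collected media measured by sandwich ELISA (2 ug/ml capture, 200 ng/ml biotinylated detection antibody, streptavidin-HRP), read at 450 nm.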

Setting [1] is: Table 5, second part, column 1, class = % of control IL6 production, read-out: Inhibition of TNF-induced IL6, production.

Where two headings read alike, the source gives them in different places.

The term melting point denotes the temperature, or range, at which the solid turns liquid. In turn, `COc1ccc(Nc2nc(Cl)nc(OCC3CCCCC3)n2)cc1F` [Compound 114, (4-Chloro-6-cyclohexylmethoxy-[1,3,5]triazin-2-yl)-(3-fluoro-4-methoxy-phenyl)-amine] registered a melting point of 98 °C. Consider `CCN1CCCC1CNc1nc(Nc2cccc3cccnc23)nc(NC2CCCCCC2)n1` (stereo not drawn) [Compound 5, N^2-cycloheptyl-N^4-[(1-ethyl-2-pyrrolidinyl)methyl]-N^6-(8-quinolinyl)-1,3,5-triazine-2,4,6-triamine], for which the Toxicity result with cells was “toxic”. On the same count and under the same terms, to `CCN1CCCC1CNc1nc(Nc2ccc(OC(F)(F)F)cc2)nc(NC2CCCCCC2)n1` (stereo not drawn) [Compound 9, N^2-cycloheptyl-N^4-[(1-ethyl-2-pyrrolidinyl)methyl]-N^6-[4-(trifluoromethoxy)phenyl]-1,3,5-triazine-2,4,6-triamine] belongs “toxic”; to `CCN1CCCC1CNc1nc(Nc2ccc(Oc3ccccc3)cc2)nc(NC2CCCCCC2)n1` (stereo not drawn) [Compound 36, N^2-cycloheptyl-N^4-[(1-ethyl-2-pyrrolidinyl)methyl]-N^6-(4-phenoxyphenyl)-1,3,5-triazine-2,4,6-triamine], “toxic”; to `CCN1CCCC1CNc1nc(Nc2ccc(Cl)cc2)nc(NC2CCCCCC2)n1` (stereo not drawn) [Compound 12, N^2-(4-chlorophenyl)-N^4-cycloheptyl-N^6-[(1-ethyl-2-pyrrolidinyl)methyl]-1,3,5-triazine-2,4,6-triamine], “toxic”. Same read-out and setting: under `CCOC(=O)c1ccc(Nc2nc(NCC3CCCN3CC)nc(NC3CCCCCC3)n2)cc1` (stereo not drawn) [Compound 14, Ethyl 4-[(4-(cycloheptylamino)-6-{[(1-ethyl-2-pyrrolidinyl)methyl]amino}-1,3,5-triazin-2-yl)-amino]benzoate] stands “toxic”. With `COc1ccc(Nc2nc(NC3CCCCCC3)nc(OCC3CCCN3)n2)cc1Cl` (stereo not drawn) [Compound E22, N^2-(3-chloro-4-methoxyphenyl)-N^4-cycloheptyl-6-(2-azolanylmethoxy)-1,3,5-triazine-2,4-diamine], the melting point is 84 to 86 °C. Same read-out and setting: under `COc1ccc(Nc2nc(Cl)nc(NCC3CCCCC3)n2)cc1F` [Compound 125, 6-Chloro-N-cyclohexylmethyl-N′-(3-fluoro-4-methoxy-phenyl)-[1,3,5]triazine-2,4-diamine] stands 156 °C; under `COc1ccc(Nc2nc(Cl)nc(OCC3CCCCC3)n2)cc1Cl` [Compound 117, (4-Chloro-6-cyclohexylmethoxy-[1,3,5]triazin-2-yl)-(3-chloro-4-methoxy-phenyl)-amine], 114 °C. Regarding `COc1ccc(Nc2nc(NC3CCCCCC3)nc(N(C)C3CCNCC3)n2)cc1Cl` [Compound 146, N^2-(3-chloro-4-methoxy-phenyl)-N^4-cycloheptyl-N^6-methyl-N^6-piperidin-4-yl-1,3,5-triazine-2,4,6-triamine], the melting point lay in the range of 114 to 116 °C. `COc1ccc(Nc2nc(Nc3ccc(OC)c(F)c3)nc(OCC3CCCCC3)n2)cc1F` [Compound 115, 6-Cyclohexylmethoxy-N,N′-bis-(3-fluoro-4-methoxy-phenyl)-1,3,5-triazine-2,4-diamine]: the melting point worked out at 181 °C. In the case of `CCN1CCCC1CNc1nc(Nc2ccccc2Br)nc(NC2CCCCCC2)n1` (stereo not drawn) [Compound 22, N^2-(2-bromophenyl)-N^4-cycloheptyl-N^6-[(1-ethyl-2-pyrrolidinyl)methyl]-1,3,5-triazine-2,4,6-triamine], in the series on cells, the Toxicity entry is listed as “toxic”. As for `COc1ccc(Nc2nc(NN3CCCCCC3)nc(N(C)C3CCNCC3)n2)cc1Cl`, the melting point was 81 °C. Consider `CCN1CCCC1CNc1nc(Nc2cnc3ccccc3c2)nc(NC2CCCCCC2)n1` (stereo not drawn) [Compound 3, N^2-cycloheptyl-N^4-[(1-ethyl-2-pyrrolidinyl)methyl]-N^6-(3-quinolinyl)-1,3,5-triazine-2,4,6-triamine], for which the activity at 10 µM with TNF-α induced IL-6 (setting [1]) lay within 0 to 25%. In addition, in the series on cells, the Toxicity entry is on record as “toxic”. On to `COc1ccc(Nc2nc(Nc3ccc(OC)c(Cl)c3)nc(OCC3CCCCC3)n2)cc1Cl` [Compound 118, N,N′-Bis-(3-chloro-4-methoxy-phenyl)-6-cyclohexylmethoxy-1,3,5-triazine-2,4-diamine], for which the melting point worked out at 188 °C. Same read-out and setting: to `CCN1CCCC1CNc1nc(Nc2ccc(OC)c(F)c2)nc(OCC2CCCCC2)n1` (stereo not drawn) [Compound 116, 6-Cyclohexylmethoxy-N-(1-ethyl-pyrrolidin-2-ylmethyl)-N′-(3-fluoro-4-methoxy-phenyl)-[1,3,5]triazine-2,4-diamine] belongs 59 °C. In the case of `CCN1CCCC1CNc1nc(Nc2cccc(F)c2)nc(NC2CCCCCC2)n1` (stereo not drawn) [Compound 16, N^2-cycloheptyl-N^4-[(1-ethyl-2-pyrrolidinyl)methyl]-N^6-(3-fluorophenyl)-1,3,5-triazine-2,4,6-triamine], the Toxicity result in the series on cells is recorded as “toxic”. On the same count and under the same terms, under `CCN1CCCC1CNc1nc(Nc2ccc(F)c(F)c2)nc(NC2CCCCCC2)n1` (stereo not drawn) [Compound 8, N^2-cycloheptyl-N^4-(3,4-difluorophenyl)-N^6-[(1-ethyl-2-pyrrolidinyl)methyl]-1,3,5-triazine-2,4,6-triamine] stands “toxic”. As for `CCN1CCCC1CNc1nc(NC2CCCCCC2)nc(N(C)c2ccc(OC(F)(F)F)cc2)n1` (stereo not drawn) [Compound 47, N^2-cycloheptyl-N^4-[(1-ethyl-2-pyrrolidinyl)methyl]-N^6-methyl-N^6-[4-(trifluoromethoxy)phenyl]-1,3,5-triazine-2,4,6-triamine], the Toxicity result in the series on cells is “toxic”.

Turning to `COc1ccc(Nc2nc(OCC3CCCCC3)nc(N(C)C3CCN(C)CC3)n2)cc1Cl` [Compound 119, N-(3-Chloro-4-methoxy-phenyl)-6-cyclohexylmethoxy-N′-methyl-N′-(1-methyl-piperidin-4-yl)-[1,3,5]triazine-2,4-diamine], the Toxicity result in the series on cells is given as “toxic”.

For the compound `CCN1CCCC1CNc1nc(Nc2ccc(OC)c(F)c2)nc(NC2CCCCCCC2)n1` (stereo not drawn) [Compound 54, N^2-cyclooctyl-N^4-[(1-ethyl-2-pyrrolidinyl)methyl]-N^6-(3-fluoro-4-methoxyphenyl)-1,3,5-triazine-2,4,6-triamine], in the series with cells, the Toxicity result is on record as “toxic”. For the compound `COc1ccc(Nc2nc(NCCN(C)C)nc(NC3CCCCCC3)n2)cc1F` [Compound 93, N^2-cycloheptyl-N^4-[2-(dimethylamino)ethyl]-N^6-(3-fluoro-4-methoxyphenyl)-1,3,5-triazine-2,4,6-triamine], the activity at 10 µM with TNF-α induced IL-6 (Table 5, first part, class = % of control IL6 production, read-out: Inhibition of TNF-induced IL6 production) is 0 to 25%; with TNF-α induced IL-6 (setting [1]) it was 0 to 25%. Further, the Toxicity result with cells is “toxic”. Turning to `CCN1CCCC1CNc1nc(Nc2ccccc2Cl)nc(NC2CCCCCC2)n1` (stereo not drawn) [Compound 21, N^2-(2-chlorophenyl)-N^4-cycloheptyl-N^6-[(1-ethyl-2-pyrrolidinyl)methyl]-1,3,5-triazine-2,4,6-triamine], the Toxicity entry in the series on cells is “toxic”. Still for that read-out and setting: under `CCN1CCCC1CNc1nc(Nc2ccc(Br)cc2)nc(NC2CCCCCC2)n1` (stereo not drawn) [Compound 13, N^2-(4-bromophenyl)-N^4-cycloheptyl-N^6-[(1-ethyl-2-pyrrolidinyl)methyl]-1,3,5-triazine-2,4,6-triamine] stands “toxic”. For the compound `CCN1CCCC1CNc1nc(Nc2ccc(OC)c(Cl)c2)nc(NC2CCCCCC2)n1` (stereo not drawn) [Compound 136, N^2-(3-chloro-4-methoxy-phenyl)-N^4-cycloheptyl-N^6-(1-ethyl-pyrrolidin-2-ylmethyl)-1,3,5-triazine-2,4,6-triamine], the Toxicity entry in the series on cells is “Nothing but celldebris at 3 uM verytoxic”. Turning to `CCCCN(CCC)c1nc(Nc2ccc(OC)c(Cl)c2)nc(N(C)C2CCN(C)CC2)n1` [Compound 111, N-Butyl-N′-(3-chloro-4-methoxy-phenyl)-N″-methyl-N″-(1-methyl-piperidin-4-yl)-N-propyl-[1,3,5]triazine-2,4,6-triamine], in the series on TNF-α induced IL-6 (HAEC, 5 uM compound, TNF stimulation = 100%), the “% IL6 production compare to TNF stimulation of IL6 (100%), @ 5 uM” value turned out to be 46%. For the same compound, the activity at 10 µM in the series on TNF-α induced IL-6 (read-out: % IL6 production compare to TNF stimulation of IL6 (100%), Compds tested @ 10 uM HAEC, IL6) was more than 90%; in the series on TNF-α induced IL-6 (read-out: Inhibition of TNF-induced IL6 production), 75 to 100%. Moreover, the Toxicity entry in the series on cells is on record as “Toxic by eye at 50and 10 uM noblunt/round justdeath”. In the case of `CCN1CCCC1CNc1nc(Nc2ccc(OC)c(F)c2)nc(N2CCCC3CCCCC32)n1` (stereo not drawn) [Compound 59, N^2-[(1-ethyl-2-pyrrolidinyl)methyl]-N^4-(3-fluoro-4-methoxyphenyl)-N^6-octahydro-1(2H)-quinolinyl-1,3,5-triazine-2,4-diamine], in the series with cells, the Toxicity entry is recorded as “toxic”.
